From patent US20100061928A1, “LABELLED ANALOGUES OF HALOBENZAMIDES AS RADIOPHARMACEUTICALS” (Institut National De La Sante et De La Recherche Medicale …, priority 2006, published 2010)
Where a name gives a salt, the structure may show the parent alone.

Assays:
[1] = tested on: grafted B16 F0 murine melanoma tumour; assay: Biodistribution of the ^125I-labelled molecules in the melanoma-bearing mouse (autoradiography of whole-body sections); conditions: for Biodistribution, Mean, B 16: B 16 tumour
[2] = Elimination of the molecules: cumulative urinary and faecal excretion 0-72 hours; format: in vivo, mouse
[3] = tested on: tumour; assay: Dosimetry with regard to the tumour (MIRD programme, extrapolated to ^131I)

Question: With `CCN(CC)CCNC(=O)c1c[nH]c2ccc(I)cc2c1=O` [compound 35, N-(2-diethylaminoethyl)-1,4-dihydro-6-iodo-4-oxoquinoline-3-carboxamide dihydrochloride] as the molecule, how does the “Biodistribution, Mean, B 16” value ([1]; 1 H) read?
Answer: 4.69

Question: What about the “Biodistribution, Mean, B 16” value ([1]; 3 H) of the same molecule?
Answer: 4.05

Question: And the “Biodistribution, Mean, B 16” value ([1]; 6 H)?
Answer: 5.81

Question: And the “Biodistribution, Mean, B 16” value ([1]; 24 H)?
Answer: 2.74

Question: What about the “Biodistribution, Mean, B 16” value ([1]; 72 H) of the same molecule?
Answer: 2.35

Question: What about the “Biodistribution, Mean, Ic” value ([1]; 1 H) of the same molecule?
Answer: 52.94

Question: And the “Biodistribution, Mean, Ic” value ([1]; 3 H)?
Answer: 90.12

Question: What about the “Biodistribution, Mean, Ic” value ([1]; 6 H) of the same molecule?
Answer: 61.06

Question: What about the “Biodistribution, Mean, Ic” value ([1]; 24 H) of the same molecule?
Answer: 1.62

Question: And the “Biodistribution, Mean, Ic” value ([1]; 72 H)?
Answer: 0.70

Question: And the “Biodistribution, Mean, Sc” value ([1]; 1 H)?
Answer: 12.74

Question: And the “Biodistribution, Mean, Sc” value ([1]; 3 H)?
Answer: 9.93

Question: And the “Biodistribution, Mean, Sc” value ([1]; 6 H)?
Answer: 22.27

Question: What about the “Biodistribution, Mean, Sc” value ([1]; 24 H) of the same molecule?
Answer: 0.13

Question: And the “Biodistribution, Mean, blood” value ([1]; 1 H)?
Answer: 0.42

Question: And the “Biodistribution, Mean, blood” value ([1]; 3 H)?
Answer: 0.23

Question: And the “Biodistribution, Mean, blood” value ([1]; 6 H)?
Answer: 0.17

Question: And the “Biodistribution, Mean, blood” value ([1]; 24 H)?
Answer: 0.22

Question: And the “Biodistribution, Mean, brain” value ([1]; 1 H)?
Answer: 0.07

Question: What about the “Biodistribution, Mean, brain” value ([1]; 6 H) of the same molecule?
Answer: 0.08

Question: What about the “Biodistribution, Mean, brain” value ([1]; 24 H) of the same molecule?
Answer: 0.04

Question: What about the “Biodistribution, Mean, brain” value ([1]; 72 H) of the same molecule?
Answer: 0.10

Question: What about the “Biodistribution, Mean, kidney” value ([1]; 1 H) of the same molecule?
Answer: 2.80

Question: And the “Biodistribution, Mean, kidney” value ([1]; 3 H)?
Answer: 0.80

Question: What about the “Biodistribution, Mean, kidney” value ([1]; 6 H) of the same molecule?
Answer: 0.20

Question: What about the “Biodistribution, Mean, kidney” value ([1]; 24 H) of the same molecule?
Answer: 0.03

Question: What about the “Biodistribution, Mean, liver” value ([1]; 1 H) of the same molecule?
Answer: 5.16

Question: And the “Biodistribution, Mean, liver” value ([1]; 3 H)?
Answer: 1.84

Question: And the “Biodistribution, Mean, liver” value ([1]; 6 H)?
Answer: 0.32

Question: And the “Biodistribution, Mean, liver” value ([1]; 24 H)?
Answer: 0.07

Question: And the “Biodistribution, Mean, lungs” value ([1]; 1 H)?
Answer: 2.06

Question: What about the “Biodistribution, Mean, lungs” value ([1]; 3 H) of the same molecule?
Answer: 0.88

Question: And the “Biodistribution, Mean, lungs” value ([1]; 6 H)?
Answer: 0.15

Question: And the “Biodistribution, Mean, lungs” value ([1]; 24 H)?
Answer: 0.04

Question: What about the “Biodistribution, Mean, muscle” value ([1]; 1 H) of the same molecule?
Answer: 0.92

Question: What about the “Biodistribution, Mean, muscle” value ([1]; 3 H) of the same molecule?
Answer: 0.13

Question: What about the “Biodistribution, Mean, muscle” value ([1]; 6 H) of the same molecule?
Answer: 0.01

Question: What about the “Biodistribution, Mean, pancreas” value ([1]; 1 H) of the same molecule?
Answer: 5.74

Question: What about the “Biodistribution, Mean, pancreas” value ([1]; 3 H) of the same molecule?
Answer: 0.96

Question: What about the “Biodistribution, Mean, pancreas” value ([1]; 6 H) of the same molecule?
Answer: 1.08

Question: And the “Biodistribution, Mean, spleen” value ([1]; 1 H)?
Answer: 1.24

Question: And the “Biodistribution, Mean, spleen” value ([1]; 3 H)?
Answer: 0.28

Question: And the “Biodistribution, Mean, spleen” value ([1]; 6 H)?
Answer: 0.26

Question: What about the “Biodistribution, Mean, spleen” value ([1]; 24 H) of the same molecule?
Answer: 0.15

Question: What about the “Biodistribution, Mean, thyroid” value ([1]; 3 H) of the same molecule?
Answer: 4.33

Question: What about the “Biodistribution, Mean, thyroid” value ([1]; 6 H) of the same molecule?
Answer: 8.55

Question: And the “Biodistribution, Mean, thyroid” value ([1]; 24 H)?
Answer: 5.09

Question: And the “Biodistribution, Mean, thyroid” value ([1]; 72 H)?
Answer: 9.83

Question: What about the “Biodistribution, Mean, uvea” value ([1]; 1 H) of the same molecule?
Answer: 5.12

Question: What about the “Biodistribution, Mean, uvea” value ([1]; 3 H) of the same molecule?
Answer: 5.66

Question: And the “Biodistribution, Mean, uvea” value ([1]; 6 H)?
Answer: 5.18

Question: And the “Biodistribution, Mean, uvea” value ([1]; 24 H)?
Answer: 3.5

Question: What about the “Biodistribution, Mean, uvea” value ([1]; 72 H) of the same molecule?
Answer: 6.79

Question: And the “Faecal elimination 0-72 hours (Faeces)” value ([2]; cumulative excretion 0-72 hours, faeces, mice in metabolic cages)?
Answer: 69.2%

Question: And the “Urinary and faecal elimination 0-72 hours (Total)” value ([2]; cumulative excretion 0-72 hours, urine + faeces)?
Answer: 93.0%

Question: What about the “Urinary elimination 0-72 hours (Urine)” value ([2]; cumulative excretion 0-72 hours, urine, mice in metabolic cages) of the same molecule?
Answer: 23.8%

Question: And the “elimination route (in words)” value ([2]; urinary versus faecal, 0-72 hours)?
Answer: faecal route predominates

Question: What about the Effective period ([3]; extrapolated to 131I labelling) of the same molecule?
Answer: 49.4 h

Question: What about the Biological period ([3]; from biodistribution data) of the same molecule?
Answer: 66.3 hours
